The results in this text go back to ChEMBL document CHEMBL1201862, “PubChem BioAssay data set” (2004).

Among the test systems are A549; ACHN; HOP-62; Hs-578T; IGROV-1; K562; LOX IMVI; M14; MDA-MB-435; MOLT-4; NCI-H460; OVCAR-3; OVCAR-4; RPMI-8226; SK-MEL-28; SK-MEL-2; SNB-19; SW-620; U-251; MDA-N.
What all share (test): NCI tumour cell line growth inhibition, 48 h

Values joined by “and” are separate entries in the source; they are usually repeats but may differ in a detail not shown here. Identical values can stand only once.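 Compound exposure: 48 hours, 5 concentrations, 96-well plates. GI50 = concentration required for 50% inhibition of growth.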 Active and inactive are the calls of the source. No stated cut-off is given here; in the data, active = GI50 up to about 1.1 µM and inactive = higher.

Take `CN(C)CCCc1c2ccccc2nc2ccc(Cl)cc12`: the GI50 in the experiment on A549 is 13.9 µM (inactive); in the experiment with ACHN it was 14.9 µM (inactive); in the experiment on HOP-62, 14.5 µM (inactive); with Hs-578T it was 16.5 µM (inactive); with IGROV-1, 16.4 µM (inactive); in the experiment on K562 it was 19.1 µM (inactive). Also, the GI50 with LOX IMVI was 14.2 µM (inactive); in the experiment with M14 it was 14.2 µM (inactive); in the experiment on MDA-MB-435 it was 13.3 µM (inactive); with MOLT-4 it was 17.9 µM (inactive); with NCI-H460 it was 12.1 µM (inactive); with OVCAR-3, 24.8 µM (inactive). Moreover, the GI50 with OVCAR-4 is 18.6 µM (inactive); with RPMI-8226 it was 21.3 µM (inactive); in the experiment with SK-MEL-28 it was 18.3 µM (inactive); in the experiment on SK-MEL-2 it was 19.9 µM (inactive); in the experiment on SNB-19 it was 12 µM (inactive); in the experiment with SW-620, 12.9 µM (inactive). In the experiment with U-251, the GI50 is 12.2 µM (inactive).
On to `COc1cc2c(cc1OC)C1Cc3cc(OC)c(OC)cc3C(C2)N1C`, for which the GI50 is > 100 µM (inactive) in the experiment on A549; > 100 µM (inactive) in the experiment with ACHN; > 75 µM (inactive) and 44.3 µM (inactive) with HOP-62; > 75 µM (inactive) in the experiment on Hs-578T; > 75 µM (inactive) in the experiment on IGROV-1; > 100 µM (inactive) with K562. Besides, the GI50 in the experiment on LOX IMVI was 48 µM (inactive); in the experiment on M14, > 100 µM (inactive); in the experiment with MDA-MB-435 it was > 75 µM (inactive); in the experiment on MDA-N, 63.1 µM (inactive); in the experiment with MOLT-4 it was > 75 µM (inactive); in the experiment with OVCAR-3, > 100 µM (inactive). Moreover, the GI50 is > 100 µM (inactive) in the experiment on OVCAR-4; > 100 µM (inactive) in the experiment with SK-MEL-28; > 75 µM (inactive) with SK-MEL-2; > 100 µM (inactive) in the experiment on SNB-19; > 100 µM (inactive) in the experiment on SW-620; > 100 µM (inactive) with U-251.
In the case of `COC(=O)c1c(C)cccc1CC1Cc2c(C)cccc2C1=O` (stereo unspecified), the GI50 in the experiment on A549 is 28.4 µM (inactive); in the experiment with ACHN, 35.7 µM (inactive); in the experiment with HOP-62 it was 61.9 µM (inactive); in the experiment with Hs-578T it was 35.3 µM (inactive); in the experiment on IGROV-1, 33.3 µM (inactive); in the experiment on K562 it was 29.6 µM (inactive). Moreover, the GI50 in the experiment with LOX IMVI was 12 µM (inactive); in the experiment on M14, 31.5 µM (inactive); in the experiment on MDA-MB-435 it was 21.7 µM (inactive); in the experiment with MDA-N, 30.3 µM (inactive); with MOLT-4, 24.4 µM (inactive); in the experiment on NCI-H460 it was 35 µM (inactive). Besides, the GI50 in the experiment with OVCAR-3 is 24.1 µM (inactive); in the experiment on OVCAR-4, 32.8 µM (inactive); in the experiment on SK-MEL-28, 55.8 µM (inactive); in the experiment with SK-MEL-2 it was 18.7 µM (inactive); in the experiment with SNB-19 it was 48.3 µM (inactive); with SW-620, 40.6 µM (inactive). Moreover, the GI50 in the experiment on U-251 is 40 µM (inactive).
On to `C/C=C\C(CC(=O)O)CN1CCC2=C(C1)C(S(=O)(=O)C(F)(F)F)c1ccccc12` (stereo unspecified), for which the GI50 in the experiment on A549, in the experiment on ACHN, with HOP-62, with Hs-578T, in the experiment on IGROV-1 and with K562 was > 100 µM (inactive) throughout. For the same molecule, the GI50 with M14, in the experiment on MDA-MB-435, with MDA-N, with MOLT-4, in the experiment on NCI-H460 and in the experiment with OVCAR-3 was > 100 µM (inactive) in each case. The GI50 in the experiment with OVCAR-4, in the experiment with RPMI-8226, with SK-MEL-28, with SK-MEL-2, in the experiment with SNB-19 and in the experiment on SW-620 was > 100 µM (inactive) in each case. Besides, the GI50 in the experiment with U-251 was > 100 µM (inactive).
For `Cc1ccc(-n2cc(-c3ccc(Cl)cc3)c3c2N=CN2N=C(c4ccco4)NC32)cc1` (stereo unspecified), the GI50 in the experiment on A549 is 15 µM (inactive); with ACHN it was 4.24 µM (inactive); with HOP-62 it was 7.64 µM (inactive); with Hs-578T it was 2.05 µM (inactive); in the experiment with IGROV-1 it was 7.62 µM (inactive); in the experiment with K562 it was 7.41 µM (inactive). Besides, the GI50 in the experiment with LOX IMVI is 21.9 µM (inactive); with M14 it was 28.8 µM (inactive); in the experiment on MDA-MB-435, 30.8 µM (inactive); with MDA-N it was 19.5 µM (inactive); in the experiment with NCI-H460, 4.49 µM (inactive); in the experiment on OVCAR-3 it was 6.49 µM (inactive). Further, the GI50 is 1.93 µM (inactive) in the experiment with OVCAR-4; 71 µM (inactive) in the experiment on SK-MEL-28; 10 µM (inactive) in the experiment on SK-MEL-2; 14.3 µM (inactive) in the experiment with SNB-19; 8.87 µM (inactive) in the experiment with SW-620; 5.46 µM (inactive) in the experiment on U-251.
Turning to `CC(=O)NCCSC(=O)c1ccccc1`, the GI50 in the experiment with A549 was 0.155 µM (active); in the experiment with ACHN, < 0.0195 µM (active); with HOP-62 it was 0.148 µM (active); with Hs-578T, 0.479 µM (active); with IGROV-1, 1.69 µM (inactive); in the experiment on K562 it was 0.285 µM (active). Besides, the GI50 was 0.124 µM (active) with LOX IMVI; 0.0923 µM (active) in the experiment on M14; 0.18 µM (active) in the experiment with MDA-MB-435; < 0.0176 µM (active) with MOLT-4; < 0.033 µM (active) with NCI-H460; 0.243 µM (active) with OVCAR-3. The GI50 in the experiment with OVCAR-4 is 1.38 µM (inactive); in the experiment on RPMI-8226, 0.131 µM (active); in the experiment with SK-MEL-28, 0.268 µM (active); with SK-MEL-2, 0.295 µM (active); with SNB-19, 0.916 µM (active); in the experiment with SW-620, 0.0295 µM (active). For the same molecule, in the experiment on U-251, the GI50 is 0.166 µM (active).
As for `COc1ccc(-c2nc(-c3ccc(OC)cc3)n(-c3ccccc3)n2)cc1`, the GI50 with A549 was 56.6 µM (inactive); in the experiment with ACHN, > 100 µM (inactive); with HOP-62, > 100 µM (inactive); with Hs-578T it was > 100 µM (inactive); in the experiment on IGROV-1 it was > 100 µM (inactive); in the experiment on LOX IMVI, 41.1 µM (inactive). Further, the GI50 was 68.7 µM (inactive) with M14; > 100 µM (inactive) with MDA-MB-435; > 100 µM (inactive) in the experiment on MDA-N; 16.1 µM (inactive) with MOLT-4; > 100 µM (inactive) with NCI-H460; 46.8 µM (inactive) in the experiment on OVCAR-3. The GI50 with OVCAR-4 is 31.7 µM (inactive); in the experiment on SK-MEL-28 it was > 100 µM (inactive); with SK-MEL-2, > 100 µM (inactive); in the experiment on SNB-19 it was 57.8 µM (inactive); with SW-620, > 100 µM (inactive); with U-251, 78.9 µM (inactive).
`CC(=O)Oc1ccccc1-c1cc2ccccc2oc1=O`: the GI50 with A549, in the experiment on ACHN, in the experiment on HOP-62, in the experiment with Hs-578T, in the experiment on K562 and with LOX IMVI was > 100 µM (inactive) throughout. The GI50 in the experiment on M14 was > 100 µM (inactive); in the experiment on MDA-MB-435 it was > 100 µM (inactive); in the experiment with MDA-N it was > 100 µM (inactive); in the experiment with MOLT-4 it was > 100 µM (inactive); in the experiment on NCI-H460, > 100 µM (inactive); in the experiment with OVCAR-3, 22.4 µM (inactive). Moreover, the GI50 in the experiment on RPMI-8226, in the experiment on SK-MEL-28, with SK-MEL-2, with SNB-19 and in the experiment on SW-620 was > 100 µM (inactive) throughout.
As for `Cn1ncc2[nH]cnc2c1=S`, the GI50 in the experiment on A549 is > 100 µM (inactive); in the experiment with ACHN it was > 100 µM (inactive); in the experiment with HOP-62, > 100 µM (inactive); in the experiment with Hs-578T, > 100 µM (inactive); in the experiment with IGROV-1 it was > 100 µM (inactive); in the experiment on K562, 50.7 µM (inactive). Moreover, the GI50 was > 100 µM (inactive) in the experiment on M14; > 100 µM (inactive) in the experiment on MDA-MB-435; > 100 µM (inactive) in the experiment with MDA-N; 43.8 µM (inactive) in the experiment on MOLT-4; > 100 µM (inactive) with NCI-H460; > 100 µM (inactive) with OVCAR-3. The GI50 was 34.8 µM (inactive) in the experiment on RPMI-8226; > 100 µM (inactive) in the experiment on SK-MEL-28; > 100 µM (inactive) in the experiment on SK-MEL-2; > 100 µM (inactive) in the experiment with SNB-19; > 100 µM (inactive) in the experiment on SW-620; > 100 µM (inactive) in the experiment on U-251.
Take `Cc1ccc2c(O)cc(-c3ccsc3)nc2n1`: the GI50 with A549 was 5.24 µM (inactive); in the experiment on ACHN, 6.98 µM (inactive); with HOP-62 it was 10.8 µM (inactive); in the experiment on Hs-578T, 3.82 µM (inactive); in the experiment on IGROV-1, 4.74 µM (inactive); with K562, 2.9 µM (inactive). For the same molecule, the GI50 is 3.62 µM (inactive) in the experiment with LOX IMVI; 3.21 µM (inactive) with M14; 0.597 µM (active) with MDA-MB-435; 0.454 µM (active) in the experiment with MDA-N; 3.56 µM (inactive) in the experiment with MOLT-4; 4.01 µM (inactive) in the experiment with NCI-H460. Besides, the GI50 is 6.46 µM (inactive) with OVCAR-3; > 29.9 µM (inactive) in the experiment on OVCAR-4; 2.2 µM (inactive) in the experiment on RPMI-8226; 7.23 µM (inactive) in the experiment on SK-MEL-28; 6.59 µM (inactive) in the experiment with SNB-19; 1.75 µM (inactive) in the experiment with SW-620. Also, in the experiment on U-251, the GI50 is 4.65 µM (inactive).
For `O=C1NC(=O)[C@@]2(CC[C@@H](O)C2)c2ccncc21` [SESBANINE], the GI50 with A549, in the experiment on ACHN, in the experiment on Hs-578T, with IGROV-1, in the experiment with K562 and in the experiment on LOX IMVI was > 100 µM (inactive) in each case. For the same molecule, the GI50 in the experiment with M14, with MDA-MB-435, in the experiment on MDA-N, in the experiment with MOLT-4, with NCI-H460 and in the experiment on OVCAR-4 was > 100 µM (inactive) each time. Further, the GI50 in the experiment with SK-MEL-28, in the experiment on SK-MEL-2, in the experiment on SNB-19, in the experiment with SW-620 and in the experiment on U-251 was > 100 µM (inactive) each time.
